Reference: US20240158348A1, “HERBICIDAL CYCLIC AMIDES N-SUBSTITUTED WITH A HALOALKYLSULFONYLANILIDE GROUP” (FMC Corporation, priority 2021, published 2024)

Legend:
Type in all cases: in vivo
[1] = system: barnyardgrass (Echinochloa crusgalli); test: Test D flooded paddy test, barnyardgrass; design: key: 0 = no effect, 100 = complete control; conditions: 250 g ai/ha, Flood; applied to paddy water at 2-leaf stage; visual rating after 13 days; scale 0 (no effect) to 100 (complete control)
Method in brief: (§1)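 Plants were grown to the 2-leaf stage, then pots were flooded to 3 cm above soil and compounds applied directly into the paddy water, with that depth held throughout. After 13 days in a greenhouse, injury was visually rated against untreated controls on a 0–100 scale (0 no effect, 100 complete control).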

[2] = system: blackgrass (Alopecurus myosuroides); test: Test C postemergence, blackgrass; conditions: 31 g ai/ha Postemergence; visual injury, 0 to 100 scale (0 no effect, 100 complete control)
Method in brief: (§2)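 Pre: soil sprayed at seeding. Post: seedlings treated at 1–2 leaves (2–10 cm). Vehicle non-phytotoxic solvent mix with surfactant; loam–sand medium; greenhouse; visual injury read at 10 or 12 days, scale 0–100.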

[3] = system: pigweed, palmer (palmer amaranth, Amaranthus palmeri); test: Test C preemergence, palmer amaranth; conditions: 0 is no effect, 100 is complete control
Method in brief: as §2

[4] = system: wheat (Triticum aestivum); test: Test C postemergence, wheat; conditions: for Wheat plant response rating: visual injury, 0 to 100 scale (0 no effect, 100 complete control); for Plant response rating (0 to 100 scale), Wheat: 0 is no effect, 100 is complete control
Method in brief: as §2

soybean (Glycine max) = test: Test C postemergence, soybean; conditions: for Soybean plant response rating: visual injury, 0 to 100 scale (0 no effect, 100 complete control); for Plant response rating (0 to 100 scale), Soybean: 0 is no effect, 100 is complete control
[5] = system: ragweed (common ragweed, Ambrosia artemisiifolia); test: Test C preemergence, ragweed; conditions: 0 is no effect, 100 is complete control
Method in brief: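 Visual injury rating, 0 (no effect) to 100 (complete control), versus untreated controls after 10 or 12 days in the greenhouse. Compounds were formulated in non-phytotoxic solvent plus surfactant and applied either as a directed soil spray at sowing or onto emerged one- to two-leaf plants.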

[6] = system: foxtail, giant (giant foxtail, Setaria faberi); test: Test C preemergence, giant foxtail; conditions: 0 is no effect, 100 is complete control
Method in brief: as §2

[7] = system: galium (catchweed bedstraw, Galium aparine); test: Test C postemergence, galium; conditions: for Galium plant response rating: 31 g ai/ha Postemergence, visual injury, 0 to 100 scale (0 no effect, 100 complete control); for Plant response rating (0 to 100 scale), Galium: 125 g ai/ha Postemergence, 0 is no effect, 100 is complete control
rice (Oryza sativa) = test: Test D flooded paddy test, rice; design: key: 0 = no effect, 100 = complete control; conditions: 250 g ai/ha, Flood; applied to paddy water at 2-leaf stage; visual rating after 13 days; scale 0 (no effect) to 100 (complete control)
Method in brief: as §1

[8] = system: ducksalad (Heteranthera limosa); test: Test D flooded paddy test, ducksalad; design: key: 0 = no effect, 100 = complete control; conditions: 250 g ai/ha, Flood; applied to paddy water at 2-leaf stage; visual rating after 13 days; scale 0 (no effect) to 100 (complete control)
Method in brief: as §1

SMILES	Plant response rating, Barnyardgrass [1]	Blackgrass plant response rating [2]	Plant response rating (0 to 100 scale), Pigweed, Palmer ([3]; 31 g ai/ha Preemergence)	Plant response rating (0 to 100 scale), Pigweed, Palmer ([3]; 125 g ai/ha Preemergence)	Wheat plant response rating ([4]; 31 g ai/ha Postemergence)	Plant response rating (0 to 100 scale), Wheat ([4]; 125 g ai/ha Postemergence)	Soybean plant response rating (soybean (Glycine max); 31 g ai/ha Postemergence)	Plant response rating (0 to 100 scale), Soybean (soybean (Glycine max); 125 g ai/ha Postemergence)	Plant response rating (0 to 100 scale), Ragweed ([5]; 31 g ai/ha Preemergence)	Plant response rating (0 to 100 scale), Ragweed ([5]; 125 g ai/ha Preemergence)	Plant response rating (0 to 100 scale), Foxtail, Giant ([6]; 31 g ai/ha Preemergence)	Plant response rating (0 to 100 scale), Foxtail, Giant ([6]; 125 g ai/ha Preemergence)	Galium plant response rating [7]	Plant response rating (0 to 100 scale), Galium [7]	Plant response rating, Rice (rice (Oryza sativa))	Plant response rating, Ducksalad [8]	Wheat plant response rating ([4]; 125 g ai/ha Postemergence)	Soybean plant response rating (soybean (Glycine max); 125 g ai/ha Postemergence)
Cc1cc(C)c(N2CCC(O)C2=O)cc1NS(=O)(=O)C(F)(F)F (stereo not drawn) [Compound 14]	0	10	90	100	60	60	80	80	20	60	80	100	100	100	25	65		
COC(=O)N(c1cc(N2CCC(OC3CC3)C2=O)c(C)cc1C)S(=O)(=O)C(F)(F)F (stereo not drawn) [Compound 16]	0	0	0	0	0	0	40	60	0	0	0	0	50	50	0	0		
CC(=O)N(c1cc(N2CCC(OC3CC3)C2=O)c(C)cc1C)S(=O)(=O)C(F)(F)F (stereo not drawn) [Compound 17]	85	70	80	100	70	70	60	80	80	90	90	100	90	100	15	95		
CCOC(=O)N(c1cc(N2CCC(OC3CC3)C2=O)c(C)cc1C)S(=O)(=O)C(F)(F)F (stereo not drawn) [Compound 19]	0	0	20	60	0	10	80	80	0	10	0	10	30	90	0	0		
Cc1cc(C)c(N(C(=O)OCC(C)C)S(=O)(=O)C(F)(F)F)cc1N1CCC(OC2CC2)C1=O (stereo not drawn) [Compound 21]	95	40	100	100	10	50	60	60	40	80	100	100	100	100	85	98		
Cc1c(N2CCC(OC3CC3)C2=O)cc(N(COC(=O)C(C)(C)C)S(=O)(=O)C(F)(F)F)c(C)c1F (stereo not drawn) [Compound 23]	95	10	30	100	10	60	60	60	30	90	20	90	90	100	40	80		
Cc1c(NS(=O)(=O)C(F)(F)F)cc(N2CCC(OC3CCC3)C2=O)c(C)c1F (stereo not drawn) [Compound 25]	0	0	100	100	50		100		90	100	100	100	100	100	15	75	60	100
Cc1c(NS(=O)(=O)C(F)(F)F)cc(N2CCC(OC3CC3)C2=O)c(C)c1F (stereo not drawn) [Compound 26]	30	40	100	100	60		70		90	100	90	100	100	100	65	75	70	100
Cc1c(N2CCC(OC3CCC3)C2=O)cc(N(COC(=O)C(C)(C)C)S(=O)(=O)C(F)(F)F)c(C)c1F (stereo not drawn) [Compound 28]	60	10	30	80	20		50		40	100	70	100	90	100	30	70	60	60
